How the values were obtained:
Type in all cases: in vivo
crabgrass = test: Herbicidal activity test against upland field weeds (foliar treatment test); conditions: Digitaria sanguinalis, 50 g ai/ha, scale 0-100
Procedure, shortened: (§1)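 Greenhouse-grown plants (30±5 °C, 14/10 h light/dark) foliar hand-sprayed with compound in 50% acetone, 0.1% Tween-20 at 50 or 75 g a.i./ha. Control visually scored 0 (none) to 100 (complete) versus untreated after 14 days, or 21 days if needed.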

quack grass = test: as above; parameters: key to Foliar treatment herbicidal activity, quack grass: 0 (no control); 100 (complete control); conditions: 50 g ai/ha, scale 0-100
Procedure, shortened: as §1

rice = test: Phytotoxicity test for field crops (soil treatment test); parameters: key: 0 (no harm); 9 (complete withered)
Experimental: (§2) Experimental Example 4: Phytotoxicity Test for Field Crops (Soil Treatment Test)
(§3) Soil treatment was performed for sown crops and weeds in a square plastic pot having a surface area of 50 cm^2 filled with sterilized horticultural soil (pH 6.1, organic material 1.0%, clay 21%, silt 17%, sand 52%). As a fertilizer per pot, 0.5 g of horticultural mixed fertilizer (N:P:K=17:21:17) was treated by mixing with soil. Five kinds of crops such as rice, wheat, corn, soybean, and cotton were sown in each pot. One day after sowing, test compound solutions were made by diluting with the diluent (33% acetone, 0.1% Tween-20) so that the final treatment amount of the test compounds was 19˜300 g a.i./ha. The prepared test compound solutions were treated using a spray booth (SB6-016) at a treatment amount of 100 ml per 1 m^2 of treatment area. The treated crops were managed in greenhouse conditions (average temperature 30±5° C., light/dark=14/10 hours). External symptoms and phytotoxicity were visually investigated 10 and 20 days after treatment. In the evaluation of the phytotoxicity for the crop, the grade of 0 (no harm) to 9 (complete withered) was used. The results of Table 10 were obtained by evaluating phytotoxicity value to the untreated control.

corn = test: as above; parameters: key: 0 (no harm); 9 (complete withered)
Experimental: as §2, §3

wheat = test: as above; parameters: key: 0 (no harm); 9 (complete withered)
Experimental: as §2, §3

cotton = test: as above; parameters: key: 0 (no harm); 9 (complete withered)
Experimental: as §2, §3

bindweed = test: Herbicidal activity test against upland field weeds (foliar treatment test); conditions: 50 g ai/ha, scale 0-100
Procedure, shortened: as §1

sorghum = test: as above; conditions: Sorghum, 50 g ai/ha, scale 0-100
Procedure, shortened: as §1

soybean = test: Phytotoxicity test for field crops (soil treatment test); parameters: key: 0 (no harm); 9 (complete withered)
Experimental: as §2, §3

[1] = 50 g ai/ha, Rice (10 days after treatment)
[2] = 50 g ai/ha, Rice (20 days after treatment)
[3] = 100 g ai/ha, Rice (10 days after treatment)
[4] = 100 g ai/ha, Rice (20 days after treatment)
[5] = 50 g ai/ha, Corn (10 days after treatment)
[6] = 50 g ai/ha, Corn (20 days after treatment)
[7] = 100 g ai/ha, Corn (10 days after treatment)
[8] = 100 g ai/ha, Corn (20 days after treatment)
[9] = 50 g ai/ha, Wheat (10 days after treatment)
[10] = 50 g ai/ha, Wheat (20 days after treatment)
[11] = 100 g ai/ha, Wheat (10 days after treatment)
[12] = 100 g ai/ha, Wheat (20 days after treatment)
[13] = 50 g ai/ha, Cotton (10 days after treatment)
[14] = 50 g ai/ha, Cotton (20 days after treatment)
[15] = 100 g ai/ha, Cotton (10 days after treatment)
[16] = 100 g ai/ha, Cotton (20 days after treatment)
[17] = 50 g ai/ha, Soybean (10 days after treatment)
[18] = 50 g ai/ha, Soybean (20 days after treatment)
[19] = 100 g ai/ha, Soybean (10 days after treatment)
[20] = 100 g ai/ha, Soybean (20 days after treatment)

| SMILES | pest or weed control at 50 g/ha (crabgrass) [%] | Foliar treatment herbicidal activity, quack grass (quack grass) | Soil treatment phytotoxicity, Rice (rice; [1]) | Soil treatment phytotoxicity, Rice (rice; [2]) | Soil treatment phytotoxicity, Rice (rice; [3]) | Soil treatment phytotoxicity, Rice (rice; [4]) | Soil treatment phytotoxicity, Corn (corn; [5]) | Soil treatment phytotoxicity, Corn (corn; [6]) | Soil treatment phytotoxicity, Corn (corn; [7]) | Soil treatment phytotoxicity, Corn (corn; [8]) | Soil treatment phytotoxicity, Wheat (wheat; [9]) | Soil treatment phytotoxicity, Wheat (wheat; [10]) | Soil treatment phytotoxicity, Wheat (wheat; [11]) | Soil treatment phytotoxicity, Wheat (wheat; [12]) | Soil treatment phytotoxicity, Cotton (cotton; [13]) | Soil treatment phytotoxicity, Cotton (cotton; [14]) | Soil treatment phytotoxicity, Cotton (cotton; [15]) | Soil treatment phytotoxicity, Cotton (cotton; [16]) | pest or weed control at 50 g/ha (bindweed) [%] | plant injury at 50 g/ha (sorghum) [%] | further results |
| --- | --- | --- | --- | --- | --- | --- | --- | --- | --- | --- | --- | --- | --- | --- | --- | --- | --- | --- | --- | --- | --- |
| Cc1nc(COCc2nc(C(F)(F)F)ccc2C(=O)Nc2nnnn2C)nn1C [Compound No. 2-116, 2-(((1,5-dimethyl-1H-1,2,4-triazol-3-yl)methoxy)methyl)-N-(1-methyl-1H-tetrazol-5-yl)-6-(trifluoromethyl)nicotinamide] | 80 | 0 | 0 | 3 | 0 | 2 | 1 | 4 | 1 | 3 | 0 | 2 | 0 | 0 | 1 | 3 | 1 | 2 | 90 | 40 |  |
| Cn1nc(COCc2nc(C(F)(F)F)ccc2C(=O)Nc2nnnn2C)nc1C#N [Compound No. 2-134, 2-(((5-cyano-1-methyl-1H-1,2,4-triazol-3-yl)methoxy)methyl)-N-(1-methyl-1H-tetrazol-5-yl)-6-(trifluoromethyl)nicotinamide] | 80 |  | 1 | 1 | 5 | 4 | 0 | 0 | 0 | 0 | 0 | 0 | 0 | 0 | 0 | 1 | 0 | 2 | 98 | 10 | pest or weed control at 50 g/ha (quack grass): 10%; Soil treatment phytotoxicity, Soybean (soybean; [17]): 0; Soil treatment phytotoxicity, Soybean (soybean; [18]): 0; Soil treatment phytotoxicity, Soybean (soybean; [19]): 0; Soil treatment phytotoxicity, Soybean (soybean; [20]): 0 |
| Cc1nc(COCc2nc(C(F)(F)F)ccc2C(=S)Nc2nnnn2C)nn1C [Compound No. 2-117, 2-(((1,5-dimethyl-1H-1,2,4-triazol-3-yl)methoxy)methyl)-N-(1-methyl-1H-tetrazol-5-yl)-6-(trifluoromethyl)pyridin-3-carbothioamide] | 95 | 0 | 0 | 2 | 0 | 3 | 1 | 3 | 2 | 2 | 0 | 0 | 0 | 0 | 0 | 9 | 0 | 9 | 70 | 40 |  |
| Cn1nnc(CSCc2nc(C(F)(F)F)ccc2C(=O)N(c2nnnn2C)S(C)(=O)=O)n1 [Compound No. 2-110, N-(1-methyl-1H-tetrazol-5-yl)-2-((((2-methyl-2H-tetrazol-5-yl)methyl)thio)methyl)-N-(methylsulfonyl)-6-(trifluoromethyl)nicotinamide] | 70 | 0 | 0 | 0 | 0 | 0 | 0 | 0 | 0 | 0 | 0 | 0 | 0 | 0 | 0 | 0 | 0 | 0 | 98 | 20 | Soil treatment phytotoxicity, Soybean (soybean; [18]): 0; Soil treatment phytotoxicity, Soybean (soybean; [20]): 0 |
| CON(Cc1nnn(C)n1)Cc1nc(C(F)(F)F)ccc1C(=O)Nc1nnnn1C [Compound No. 2-97, 2-((methoxy((2-methyl-2H-tetrazol-5-yl)methyl)amino)methyl)-N-(1-methyl-1H-tetrazol-5-yl)-6-(trifluoromethyl)nicotinamide] | 95 | 0 | 7 | 9 | 9 | 9 | 0 | 0 | 1 | 0 | 0 | 0 | 0 |  | 1 | 7 | 4 | 8 | 80 | 50 | Soil treatment phytotoxicity, Soybean (soybean; [17]): 0; Soil treatment phytotoxicity, Soybean (soybean; [18]): 0; Soil treatment phytotoxicity, Soybean (soybean; [19]): 0; Soil treatment phytotoxicity, Soybean (soybean; [20]): 0 |
| Cn1nc(COCc2nc(C(F)(F)F)ccc2C(=O)Nc2nnnn2C)nc1Br [Compound No. 2-136, 2-(((5-bromo-1-methyl-1H-1,2,4-triazol-3-yl)methoxy)methyl)-N-(1-methyl-1H-tetrazol-5-yl)-6-(trifluoromethyl)nicotinamide] | 60 | 0 | 3 | 4 | 4 | 7 | 0 | 0 | 0 | 0 | 0 | 0 | 0 | 0 | 0 | 0 | 1 | 0 | 50 | 20 | Soil treatment phytotoxicity, Soybean (soybean; [17]): 0; Soil treatment phytotoxicity, Soybean (soybean; [18]): 0 |
